Assay results reported in patent publication US20020173505A1, “Medicament” (priority 1999, published 2002).

Key:
[1] = test system: human in vitro preparations (airway smooth muscle); assay: spontaneous tone in human in vitro airway preparations; conditions: for nature of the relaxation of spontaneous tone (transient or persistent): human in vitro preparations
Protocol: (§1) The examinations of the spontaneous tone were performed in accordance with the methods disclosed in the thesis “Regulation of spontaneous tone in guinea pig trachea” by S.Skogvall, Department of Physiological Sci- ences, Lund University, 1999, which is incorporated herein by reference. As evidenced by these examinations, the airways normally display a highly regular type of oscillating tone if exposed to physiological conditions, and the oscillating tone can be reversibly affected by administration of various substances- When the epithelium is removed, the preparations instead display a strong, smooth type of tone.
Similar experiments have also been performed on human in vitro preparations, from patients undergoing lobecotomy or pulmectomy due to lung cancer.
Human airways are generally considered to display only a weak contraction when exposed to S-HT. Nevertheless, examinations on spontaneous tone on human in vitro preparations have shown that 5-HT indeed has a contractile component also in this tissue. However, this contraction takes a longer time to develop than in guinea pig and the contractile effect is seen as a termination of the relaxation, rather than an increase of tone from the baseline. In guinea pig trachea, the contraction reaches a maximum after approximately 10 min, and this is followed by a considerable reduction of tone. However, human preparations instead induce a maximum relaxing effect after 5-10 min, which disappears gradually during the following 30-45 min (see FIG. 1).

[2] = test system: denuded airway smooth muscle preparations from the guinea-pig; assay: spontaneous tone of denuded guinea-pig airway smooth muscle preparations
Description: The subject-matter of the present invention was inter alia deduced from animal experiments, where a specific behavior of the airway smooth muscle called “spontaneous tone” was examined. The spontaneous tone, which involves a spontaneous continuous contraction in the airway smooth muscle, was studied due to a suspicion that detective regulation of the spontaneous tone could be an important cause of the bronchoconstriction observed in asthmatic patients.
as §1
A contractile effect of serotonin on airway smooth muscle has been reported in e.g. SkQgvall, S., Korsgren, M-, Grampp, W., J. Appl. Phys., 86:789-798, 1999. […] The spontaneous tone returned to approximately its normal level when the preparations were again exposed to control conditions.

NCCc1c[nH]c2ccc(C(N)=O)cc12 [5-carboxiamidotryptamine, 5-carboxamidotryptamine]
nature of the relaxation of spontaneous tone (transient or persistent) ([1]; FIG. 1): persistent and not transient

COc1cc(N)c(Cl)cc1C(=O)NC[C@@H]1CCN2CCC[C@@H]12 [SC 53116, 4-amino-5-chloro-N-[[lS, 7aS)-hexahydro-1H-pyrrolizin-l-yl]methyll-2-methoxy-benzamide]
nature of the relaxation of spontaneous tone (transient or persistent) ([1]; FIG. 1): persistent and not transient

NCCc1c[nH]c2ccc(O)cc12 [serotonin, 3-(P-aminoethyl)-5-hydroxyindole]
effect on spontaneous tone ([1]; 1 μM, tissue from patients undergoing lobectomy or pulmectomy): significant relaxation | nature of the relaxation of spontaneous tone (transient or persistent) ([1]; FIG. 1): transient relaxation | time over which the relaxing effect gradually disappears after the maximum ([1]; human preparations, FIG. 1): 30 to 45 min | time to maximum relaxing effect ([1]; human preparations, FIG. 1): 5 to 10 min | average force level of spontaneous tone ([2]; 1 μM added, denuded preparations with strong, smooth spontaneous tone): increased significantly | spontaneous tone, level relative to force in control (drug-free) conditions ([2]; 10 μM added, denuded preparations): about half | time to maximum contraction ([2]; guinea pig trachea): approximately 10 min
